From US20130109751A1, “LSD-1 ENZYME INHIBITORS FOR INDUCING OSTEOGENIC DIFFERENTIATION” ([…].R.L., priority 2011, published 2013) come the findings set out here.

What all share (type): cell-based, mice
Assay [1] concerns W20-17 cells. Kind of assay: Alizarin Red staining of mineralised nodules under different growth conditions (minimum medium). Particulars: 21 days, absence of dexamethasone and ascorbic acid, glycerol 2-phosphate necessary. As for the experimental part:
On the 21st day, the presence of mineralised matrix was evaluated by histochemical staining with Alizarin Red. The cells were washed with PBS, fixed with a 10% formaldehyde solution, and incubated with a 2% solution of Alizarin Red (pH 4.1-4.3) for one hour.
To evaluate the minimum composition of a medium capable of inducing the formation of mineralised matrix, W20-17 cells were seeded in a 96-well plate and cultured for 21 days under different growth conditions.
At the end of the treatment the cells were stained with Alizarin Red, as described in example 2, to evaluate the formation of mineralised nodules.

The target of a further assay is T1, LSD-1 (Mus musculus, UniProt Q6ZQ88).
T1 construct: endogenous in cells; host or cells: W20-17 cells
The assay is described as follows: In vitro enzymatic activity assay of LSD-1 on W20-17 cells. Particulars: osteogenic medium supplemented with compound, vs osteogenic medium. As for the experimental part: To evaluate whether the activity of enzyme LSD-1 is inhibited during osteogenic differentiation, an in vitro enzymatic activity assay was performed on W20-17 cells to assess the percentage inhibition of LSD-1 activity under different conditions.

In assay [2] the test system is W20-17 cells. The assay is described as follows: Expression profile of osteogenic markers by real-time PCR. Particulars: osteogenic medium, 21 days' treatment, normalised to GAPDH, vs osteogenic medium alone. On the technique in general: Real-time PCR tracks product formation cycle by cycle.

Consider `N[C@@H]1C[C@H]1c1ccccc1` (racemic) [tranylcypromine, reference compound], for which, in the assay with W20-17 cells [1], the “mineralisation (Alizarin Red, mineralised nodules)” value is “promotes mineralisation”.

Take `NC1CC1c1ccc(NC(=O)C(Cc2ccccc2)NC(=O)OCc2ccccc2)cc1` (stereo not shown) [MC2580]: on LSD-1, the “percentage inhibition of LSD-1 activity” value is given as “percentage inhibition increases”. For the same compound, the “mineralisation (Alizarin Red, mineralised nodules)” value in the assay on W20-17 cells [1] is reported as “promotes mineralisation”. Also, the “expression of late marker osteocalcin” value in the assay on W20-17 cells [2] was “most marked”.
